Results: patent publication US20240207236A1, “COMPOUND FOR PREVENTING OR TREATING DIABETES” (ONCOCROSS CO., LTD., priority 2021, published 2024)

How the values were obtained:
Format in all cases: in vivo, mice (C57BL/6)
[1] = test system: animal model of insulin-resistant diabetes; assay: Histopathological change of liver, kidney and pancreas (H&E); conditions: count in group of 10 animals
Method: (§1) STZ (Sigma-aldrich, S0130, 40 mg/kg b.w., in 0.1 M citrate buffer pH 4.5) was intraperitoneally administered to 9-week-old male mice (C57BL/6) once/1 day for 5 days to perform a first disease induction. After 7 weeks of the first induction, a second induction was performed using the same method as the first induction. For 5 days of an STZ administration period for the first induction, 10% sucrose was administered as drinking water. In addition, after 14 days of the second administration, blood sugar was confirmed to confirm the induction rate, and the induced animals were separated into groups. Experimental substances (R)-4-{(R)-1-[7-(3,4,5-trimethoxy-phenyl)-[1,6] naphthyridine-5-yloxy]-ethyl}pyrrolidine-2-one (BI-1002494) and cromolyn (OC-101) were administered orally into the stomach at 10 mL/kg using an oral administration syringe (sonde) before 16:00 daily for 12 weeks at a frequency of 7 days/week at doses shown in Table 1 below, respectively, and dexamethasone was orally administered as a positive control substance.
At the end of the observation period, the mice in each group of Example 1 were confirmed to be dead, and the liver, kidney, and pancreas were extracted and fixed with 10% neutral buffered formalin (NBF) in at least 20 times the tissue volume. The fixed tissue was sectioned to a thickness of approximately 4 mm and then produced into a paraffin block through general tissue processing and embedding processes. Thereafter, the tissue was sectioned to a thickness of 4 μm using a rotary microtome, and then H&E staining was performed, and histopathological changes were observed.

[2] = Drinking water intake of mice in STZ-induced insulin-resistant diabetes model; set-up: unit not given here
Method: as §1

[3] = test system: animal model of insulin-resistant diabetes; assay: Blood sugar, tail vein blood, blood sugar meter, 4 h fasting; set-up: blood sugar, Mean: unit not given here
Method: as §1
Before disease induction, excluding week 9 of administration of experimental substances to mice in each group of Example 1 above, after 2 weeks after the first induction (based on a first administration date), and after 6 weeks and 2 weeks of the second induction (based on the first administration date), blood was collected from the tail vein and blood sugar was measured using a blood sugar meter (Accu-Check, Roche), and fasting was performed for 4 hours from 9:30 a.m. to 1:30 p.m.

[4] = test system: animal model of insulin-resistant diabetes; assay: Blood biochemistry, automated analyzer, at end of observation
Method: as §1
(§2) After the observation period for mice of each group in Example 1 was terminated, all surviving animals were fasted in the same manner as when measuring blood sugar, and then anesthetized by inhaling isoflurane, and blood was collected from the abdominal vena cava through laparotomy. After the blood collection was completed, the veins and arteries were cut under anesthesia and exsanguinated. The collected blood was left at room temperature for 30 minutes or more and then centrifuged at 3,000 rpm for 20 minutes. Thereafter, glucose, blood urea nitrogen (BUN), and creatinine were analyzed using an automated blood biochemistry analyzer (Hitachi 3100, Hitachi Co. Ltd., Japan). Indoxyl sulfate (a substance that was mainly produced in the intestines to cause kidney damage, and a substance that caused end-stage renal failure by advancing kidney function damage in patients with renal failure during hemodialysis) was analyzed using LC MS/MS. In addition, blood insulin was analyzed according to a method represented by a commercial Mouse Insulin ELISA KIT (#AKRIN-011T, Sibayagi Co. Ltd., Japan).

[5] = Body weight of mice in STZ-induced insulin-resistant diabetes model
Method: as §1

[6] = test system: animal model of insulin-resistant diabetes; assay: Blood insulin (Mouse Insulin ELISA) and HOMA-IR; conditions: 50 mg/kg
Method: as §1, §2

[7] = test system: animal model of insulin-resistant diabetes; assay: Blood indoxyl sulfate by LC MS/MS; conditions: 50 mg/kg/day oral, 12 weeks
Method: as §1, §2

[8] = Feed intake of mice in STZ-induced insulin-resistant diabetes model; set-up: feed intake: unit not given here; conditions: 50 mg/kg/day oral
Method: as §1

[9] = 50 mg/kg/day oral, 12 weeks, blood

## C[C@@H]1C[C@H]2[C@@H]3CCC4=CC(=O)C=C[C@]4(C)[C@@]3(F)[C@@H](O)C[C@]2(C)[C@@]1(O)C(=O)CO [Dexamethasone, reference compound]
[1]; 2 mg/kg (G3)
  Kidney Medullar apoptosis: 1
  Kidney Medullar mineralization: 2
  Kidney NHL: 6
  Kidney bowman's capsule hyperplasia: 2
  Kidney pappillary mineralization: 0
  Liver Apoptosis: 4
  Liver Cytoplasmic glycogen: 0
  Liver Eosinophlic focus of cellular alteration: 3
  Liver Mononuclear cell infiltrate: 0
  Liver NHL: 5
  Pancrease Apoptosis: 0
  Pancrease NHL: 8
  Pancrease islet degeneration: 1
  Pancrease islet hypertrophy: 0
  Pancrease islet, mononuclear cell infillitrate: 1
[2]; 2 mg/kg/day oral, week 0
  drinking water intake, Mean: 7.07
[2]; 2 mg/kg/day oral, week 1
  drinking water intake, Mean: 7.73
[2]; 2 mg/kg/day oral, week 2
  drinking water intake, Mean: 7.05
[2]; 2 mg/kg/day oral, week 3
  drinking water intake, Mean: 7.89
[2]; 2 mg/kg/day oral, week 4
  drinking water intake, Mean: 7.69
[2]; 2 mg/kg/day oral, week 5
  drinking water intake, Mean: 7.10
[2]; 2 mg/kg/day oral, week 6
  drinking water intake, Mean: 7.35
[2]; 2 mg/kg/day oral, week 7
  drinking water intake, Mean: 7.18
[2]; 2 mg/kg/day oral, week 8
  drinking water intake, Mean: 7.83
[2]; 2 mg/kg/day oral, week 9
  drinking water intake, Mean: 7.45
[2]; 2 mg/kg/day oral, week 10
  drinking water intake, Mean: 7.19
[3]; 2 mg/kg/day oral, value column 2 of 6, head prints only weeks 0, 4, 8, 10
  blood sugar, Mean: 309.1
[3]; 2 mg/kg/day oral, value column 3 of 6, head prints only weeks 0, 4, 8, 10
  blood sugar, Mean: 329.2
[3]; 2 mg/kg/day oral, value column 4 of 6, head prints only weeks 0, 4, 8, 10
  blood sugar, Mean: 336.9
[3]; 2 mg/kg/day oral, value column 6 of 6, head prints only weeks 0, 4, 8, 10
  blood sugar, Mean: 331.4
[3]; 2 mg/kg/day oral, week 0
  blood sugar, Mean: 307.1
[4]; 2 mg/kg/day oral, 12 weeks, blood
  T-CHO, Mean: 139.0 dL⁻¹
[5]; 2 mg/kg/day oral, week 0
  body weight, Mean: 24 g
[5]; 2 mg/kg/day oral, week 1
  body weight, Mean: 23.5 g
[5]; 2 mg/kg/day oral, week 2
  body weight, Mean: 23.6 g
[5]; 2 mg/kg/day oral, week 3
  body weight, Mean: 23.6 g
[5]; 2 mg/kg/day oral, week 4
  body weight, Mean: 23.6 g
[5]; 2 mg/kg/day oral, week 5
  body weight, Mean: 23.7 g
[5]; 2 mg/kg/day oral, week 6
  body weight, Mean: 23.6 g
[5]; 2 mg/kg/day oral, week 7
  body weight, Mean: 23.8 g
[5]; 2 mg/kg/day oral, week 9
  body weight, Mean: 23.3 g

## O=C(O)c1cc(=O)c2c(OCC(O)COc3cccc4oc(C(=O)O)cc(=O)c34)cccc2o1 [OC-101, cromolyn, reference compound]
[1]; 50 mg/kg (G6, G7)
  Kidney Medullar apoptosis: 0
  Kidney Medullar mineralization: 1
  Kidney NHL: 8
  Kidney bowman's capsule hyperplasia: 1
  Kidney pappillary mineralization: 0
  Liver Apoptosis: 2
  Liver Cytoplasmic glycogen: 0
  Liver Eosinophlic focus of cellular alteration: 1
  Liver Mononuclear cell infiltrate: 3
  Liver NHL: 5
  Pancrease Apoptosis: 0
  Pancrease NHL: 6
  Pancrease islet degeneration: 2
  Pancrease islet hypertrophy: 2
  Pancrease islet, mononuclear cell infillitrate: 1
[6]
  HOMA-IR compared with the disease control group: decreased statistically significantly
[2]; 50 mg/kg/day oral, week 0
  drinking water intake, Mean: 6.78
[2]; 50 mg/kg/day oral, week 1
  drinking water intake, Mean: 6.11
[2]; 50 mg/kg/day oral, week 2
  drinking water intake, Mean: 7.68
[2]; 50 mg/kg/day oral, week 3
  drinking water intake, Mean: 6.99
[2]; 50 mg/kg/day oral, week 4
  drinking water intake, Mean: 7.23
[2]; 50 mg/kg/day oral, week 5
  drinking water intake, Mean: 6.76
[2]; 50 mg/kg/day oral, week 6
  drinking water intake, Mean: 7.60
[2]; 50 mg/kg/day oral, week 7
  drinking water intake, Mean: 7.06
[2]; 50 mg/kg/day oral, week 8
  drinking water intake, Mean: 7.17
[2]; 50 mg/kg/day oral, week 9
  drinking water intake, Mean: 7.09
[2]; 50 mg/kg/day oral, week 10
  drinking water intake, Mean: 6.76
[3]; 50 mg/kg/day oral, value column 2 of 6, head prints only weeks 0, 4, 8, 10
  blood sugar, Mean: 336.8
[3]; 50 mg/kg/day oral, week 0
  blood sugar, Mean: 200.9
[4]; 50 mg/kg
  GLU compared to the disease control group: decreased statistically significantly
[4]; [9]
  ALT, Mean: 31.3 L⁻¹
  AST, Mean: 34.0 L⁻¹
  T-CHO, Mean: 24.2 dL⁻¹
[7]
  Indoxyl sulfate, Mean: 0.8 µg/mL
[8]; week 3
  feed intake: 5.47
[8]; week 4
  feed intake: 4.26
[8]; week 6
  feed intake: 4.29
[8]; week 9
  feed intake: 4.51
[5]; 50 mg/kg/day oral, week 0
  body weight, Mean: 23.9 g
[5]; 50 mg/kg/day oral, week 1
  body weight, Mean: 23.4 g
[5]; 50 mg/kg/day oral, week 2
  body weight, Mean: 23.5 g
[5]; 50 mg/kg/day oral, week 3
  body weight, Mean: 23.3 g
[5]; 50 mg/kg/day oral, week 4
  body weight, Mean: 23.5 g
[5]; 50 mg/kg/day oral, week 5
  body weight, Mean: 23.4 g
[5]; 50 mg/kg/day oral, week 6
  body weight, Mean: 23.5 g
[5]; 50 mg/kg/day oral, week 7
  body weight, Mean: 23.4 g
[5]; 50 mg/kg/day oral, week 8
  body weight, Mean: 23.2 g
[5]; 50 mg/kg/day oral, week 9
  body weight, Mean: 23 g
